Results taken from PubChem BioAssay (NCI).
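Five concentrations, 48 hours, 96-well plates. At the GI50, growth is halved. Definition used: TGI = concentration required for complete inhibition of growth.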

Legend:
Assay in all cases: inhibition of tumour cell growth, NCI panel, 48 h
[1] = test system: SK-MEL-28 melanoma
[2] = test system: MDA-MB-231 breast
[3] = test system: MCF7 breast
[4] = test system: HOP-92 NSCLC
[5] = test system: MOLT-4 leukemia
[6] = test system: NCI-H522 lung
[7] = test system: NCI-H23 lung
[8] = test system: MDA-MB-435
[9] = test system: CAKI-1 renal
[10] = test system: UACC-62 melanoma
[11] = test system: OVCAR-8 ovarian
[12] = test system: CCRF-CEM leukemia
[13] = test system: A498 renal
[14] = test system: HOP-62 NSCLC
[15] = test system: KM12 colon
[16] = test system: EKVX NSCLC
[17] = test system: PC-3 prostate
[18] = test system: UACC-257 melanoma
[19] = test system: RPMI-8226 leukemia
[20] = test system: SNB-75 CNS
[21] = test system: IGROV1 ovarian
[22] = test system: T-47D breast
[23] = test system: HCT-116 colon
[24] = test system: OVCAR-4 ovarian
[25] = test system: SF-539 CNS
[26] = test system: HCC-2998 colon
[27] = test system: ACHN renal
[28] = test system: HT29 colon
[29] = test system: K-562 leukemia
[30] = test system: M14 melanoma
[31] = test system: DU-145 prostate
[32] = test system: HCT-15 colon
[33] = test system: NCI-H460 lung
[34] = test system: U251 CNS
[35] = test system: LOX IMVI melanoma
[36] = test system: NCI-H226 lung
[37] = test system: NCI/ADR-RES ovarian
[38] = test system: A549 NSCLC
[39] = test system: SF-268 CNS
[40] = test system: COLO 205 colon
[41] = test system: 786-0 renal
[42] = test system: SW-620 colon
[43] = test system: UO-31 renal
[44] = test system: SNB-19 CNS
[45] = test system: OVCAR-5 ovarian
[46] = test system: SN12C renal
[47] = test system: OVCAR-3 ovarian
[48] = test system: SK-OV-3 ovarian
[49] = test system: MALME-3M melanoma
[50] = test system: TK-10 renal
[51] = test system: SK-MEL-2 melanoma
[52] = test system: HL-60(TB) leukemia
[53] = test system: RXF 393 renal
[54] = test system: SK-MEL-5 melanoma
[55] = test system: BT-549 breast
[56] = test system: SR leukemia
[57] = test system: HS 578T breast
[58] = test system: SF-295 CNS

N#CC1=C(N)Oc2c(sc3c(F)cccc23)C1c1ccc([N+](=O)[O-])cc1 (stereo unspecified)
GI50 [1]: 0.34 µM | TGI [1]: 1.97 µM | GI50 [2]: 0.215 µM | TGI [2]: 1.21 µM | GI50 [3]: 0.0367 µM | TGI [3]: 1.54 µM | GI50 [4]: 0.156 µM | TGI [4]: 1.18 µM | GI50 [5]: 0.132 µM | TGI [5]: 1.46 µM | GI50 [6]: 0.0776 µM | TGI [6]: 0.725 µM | GI50 [7]: 0.284 µM | TGI [7]: 1.46 µM | GI50 [8]: 0.0272 µM | TGI [8]: 0.0848 µM | GI50 [9]: 0.249 µM | TGI [9]: 1.66 µM | GI50 [10]: 0.0863 µM | TGI [10]: 1.33 µM | GI50 [11]: 0.258 µM | TGI [11]: 1.78 µM | GI50 [12]: 0.179 µM | TGI [12]: 3.23 µM | GI50 [13]: 0.0219 µM | TGI [13]: 0.691 µM | GI50 [14]: 0.228 µM | TGI [14]: 1.79 µM | GI50 [15]: 0.141 µM | TGI [15]: 1.27 µM | GI50 [16]: 0.432 µM | TGI [16]: 2.63 µM | GI50 [17]: 0.241 µM | TGI [17]: 1.71 µM | GI50 [18]: 0.863 µM | TGI [18]: 2.9 µM | GI50 [19]: 0.215 µM | TGI [19]: 1.45 µM | GI50 [20]: 0.115 µM | TGI [20]: 0.445 µM | GI50 [21]: 0.152 µM | TGI [21]: 1.56 µM | GI50 [22]: 0.254 µM | TGI [22]: 2.86 µM | GI50 [23]: 0.169 µM | TGI [23]: 1.33 µM | GI50 [24]: 0.312 µM | TGI [24]: 1.9 µM | GI50 [25]: 0.188 µM | TGI [25]: 0.524 µM | GI50 [26]: 0.307 µM | TGI [26]: 1.46 µM | GI50 [27]: 0.407 µM | TGI [27]: 2.31 µM | GI50 [28]: 0.323 µM | TGI [28]: 1.47 µM | GI50 [29]: 0.0494 µM | TGI [29]: 1.79 µM | GI50 [30]: 0.111 µM | TGI [30]: 0.645 µM | GI50 [31]: 0.34 µM | TGI [31]: 1.38 µM | GI50 [32]: 0.0682 µM | TGI [32]: 1.41 µM | GI50 [33]: 0.253 µM | TGI [33]: 1.17 µM | GI50 [34]: 0.153 µM | TGI [34]: 1.21 µM | GI50 [35]: 0.133 µM | TGI [35]: 1.09 µM | GI50 [36]: 0.376 µM | TGI [36]: 1.93 µM | GI50 [37]: 0.0589 µM | TGI [37]: 0.734 µM | GI50 [38]: 0.214 µM | TGI [38]: 2.37 µM | GI50 [39]: 0.325 µM | TGI [39]: 1.93 µM | GI50 [40]: 0.279 µM | TGI [40]: 1.11 µM | GI50 [41]: 0.337 µM | TGI [41]: 1.46 µM | GI50 [42]: 0.0723 µM | TGI [42]: 1.42 µM | GI50 [43]: 0.197 µM | TGI [43]: 1.03 µM | GI50 [44]: 0.241 µM | TGI [44]: 1.51 µM | GI50 [45]: 0.552 µM | TGI [45]: 2.26 µM | GI50 [46]: 0.276 µM | TGI [46]: 1.31 µM | GI50 [47]: 0.185 µM | TGI [47]: 1.06 µM | GI50 [48]: 0.308 µM | TGI [48]: 2.37 µM | GI50 [49]: 0.36 µM | TGI [49]: 2.17 µM | GI50 [50]: 0.609 µM | TGI [50]: 3.12 µM | GI50 [51]: 0.17 µM | TGI [51]: 1.23 µM | GI50 [52]: 0.212 µM | TGI [52]: 0.806 µM | GI50 [53]: 0.191 µM | TGI [53]: 0.753 µM | GI50 [54]: 0.165 µM | TGI [54]: 1.24 µM | GI50 [55]: 0.242 µM | TGI [55]: 1.3 µM | GI50 [56]: 0.0478 µM | TGI [56]: 7.42 µM | GI50 [57]: 0.194 µM | TGI [57]: 0.808 µM | GI50 [58]: 0.184 µM | TGI [58]: 1.11 µM
